# Test results from PubChem BioAssay (NCI).
#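 Grown in 96-well plates, cells were treated for 48 hours with each compound at five concentrations. Insufficient inhibition: endpoint recorded as highest concentration tested. Here, GI50 denotes the concentration required for 50% inhibition of growth. Definition used: TGI = concentration required for complete inhibition of growth.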
# Columns and labels:
# Assay in all cases: NCI-60 cell line screen, 48 h
# 786-0 renal = test system: 786-0 renal
# A498 renal = test system: A498 renal
# A549 NSCLC = test system: A549 NSCLC
# ACHN renal = test system: ACHN renal
# BT-549 breast = test system: BT-549 breast
# CAKI-1 renal = test system: CAKI-1 renal
# CCRF-CEM leukemia = test system: CCRF-CEM leukemia
# COLO 205 colon = test system: COLO 205 colon
# DU-145 prostate = test system: DU-145 prostate
# EKVX NSCLC = test system: EKVX NSCLC
# HCC-2998 colon = test system: HCC-2998 colon
# HCT-116 colon = test system: HCT-116 colon
# HCT-15 colon = test system: HCT-15 colon
# HL-60(TB) leukemia = test system: HL-60(TB) leukemia
# HOP-62 NSCLC = test system: HOP-62 NSCLC
# HOP-92 NSCLC = test system: HOP-92 NSCLC
# HS 578T breast = test system: HS 578T breast
# HT29 colon = test system: HT29 colon
# IGROV1 ovarian = test system: IGROV1 ovarian
# KM12 colon = test system: KM12 colon
# LOX IMVI melanoma = test system: LOX IMVI melanoma
# M14 melanoma = test system: M14 melanoma
# MALME-3M melanoma = test system: MALME-3M melanoma
# MCF7 breast = test system: MCF7 breast
# MDA-MB-231 breast = test system: MDA-MB-231 breast
# MDA-MB-435 = test system: MDA-MB-435
# MDA-N = test system: MDA-N
# MOLT-4 leukemia = test system: MOLT-4 leukemia
# NCI-H226 lung = test system: NCI-H226 lung
# NCI-H23 lung = test system: NCI-H23 lung
# NCI-H522 lung = test system: NCI-H522 lung
# NCI/ADR-RES ovarian = test system: NCI/ADR-RES ovarian
# OVCAR-3 ovarian = test system: OVCAR-3 ovarian
# OVCAR-4 ovarian = test system: OVCAR-4 ovarian
# OVCAR-5 ovarian = test system: OVCAR-5 ovarian
# OVCAR-8 ovarian = test system: OVCAR-8 ovarian
# PC-3 prostate = test system: PC-3 prostate
# RPMI-8226 leukemia = test system: RPMI-8226 leukemia
# RXF 393 renal = test system: RXF 393 renal
# SF-268 CNS = test system: SF-268 CNS
# SF-295 CNS = test system: SF-295 CNS
# SF-539 CNS = test system: SF-539 CNS
# SK-MEL-2 melanoma = test system: SK-MEL-2 melanoma
# SK-MEL-28 melanoma = test system: SK-MEL-28 melanoma
# SK-MEL-5 melanoma = test system: SK-MEL-5 melanoma
# SK-OV-3 ovarian = test system: SK-OV-3 ovarian
# SN12C renal = test system: SN12C renal
# SNB-19 CNS = test system: SNB-19 CNS
# SNB-75 CNS = test system: SNB-75 CNS
# SR leukemia = test system: SR leukemia
# SW-620 colon = test system: SW-620 colon
# T-47D breast = test system: T-47D breast
# TK-10 renal = test system: TK-10 renal
# U251 CNS = test system: U251 CNS
# UACC-257 melanoma = test system: UACC-257 melanoma
# UACC-62 melanoma = test system: UACC-62 melanoma
# UO-31 renal = test system: UO-31 renal
# DLD-1 colon = test system: DLD-1 colon
# K-562 leukemia = test system: K-562 leukemia
# KM20L2 colon = test system: KM20L2 colon
# LXFL 529 NSCLC = test system: LXFL 529 NSCLC
# M19-MEL melanoma = test system: M19-MEL melanoma
# NCI-H460 lung = test system: NCI-H460 lung
compound,measurement,setting,value
COc1c2c(cc3c1OCO3)C13C=CC(OC)CC1N(CC3)C2 (stereo not given),TGI,786-0 renal,> 100 µM
same,TGI,A498 renal,> 100 µM
same,TGI,A549 NSCLC,> 100 µM
same,TGI,ACHN renal,> 100 µM
same,TGI,BT-549 breast,> 100 µM
same,TGI,CAKI-1 renal,> 100 µM
same,TGI,CCRF-CEM leukemia,> 100 µM
same,TGI,COLO 205 colon,> 100 µM
same,TGI,DU-145 prostate,> 100 µM
same,TGI,EKVX NSCLC,> 100 µM
same,TGI,HCC-2998 colon,> 100 µM
same,TGI,HCT-116 colon,> 100 µM
same,TGI,HCT-15 colon,> 100 µM
same,TGI,HL-60(TB) leukemia,> 100 µM
same,TGI,HOP-62 NSCLC,> 100 µM
same,TGI,HOP-92 NSCLC,> 100 µM
same,TGI,HS 578T breast,> 100 µM
same,TGI,HT29 colon,> 100 µM
same,TGI,IGROV1 ovarian,> 100 µM
same,TGI,KM12 colon,> 100 µM
same,TGI,LOX IMVI melanoma,> 100 µM
same,TGI,M14 melanoma,> 100 µM
same,TGI,MALME-3M melanoma,> 100 µM
same,TGI,MCF7 breast,> 100000 nM
same,TGI,MDA-MB-231 breast,> 100 µM
same,TGI,MDA-MB-435,> 100 µM
same,TGI,MDA-N,> 100 µM
same,TGI,MOLT-4 leukemia,> 100 µM
same,TGI,NCI-H226 lung,> 100 µM
same,TGI,NCI-H23 lung,> 100 µM
same,TGI,NCI-H522 lung,> 100 µM
same,TGI,NCI/ADR-RES ovarian,> 100 µM
same,TGI,OVCAR-3 ovarian,> 100 µM
same,TGI,OVCAR-4 ovarian,> 100 µM
same,TGI,OVCAR-5 ovarian,> 100 µM
same,TGI,OVCAR-8 ovarian,> 100 µM
same,TGI,PC-3 prostate,> 100 µM
same,TGI,RPMI-8226 leukemia,> 100 µM
same,TGI,RXF 393 renal,> 100 µM
same,TGI,SF-268 CNS,> 100 µM
same,TGI,SF-295 CNS,> 100 µM
same,TGI,SF-539 CNS,> 100 µM
same,TGI,SK-MEL-2 melanoma,> 100 µM
same,TGI,SK-MEL-28 melanoma,> 100 µM
same,TGI,SK-MEL-5 melanoma,> 100 µM
same,TGI,SK-OV-3 ovarian,> 100 µM
same,TGI,SN12C renal,> 100 µM
same,TGI,SNB-19 CNS,> 100 µM
same,TGI,SNB-75 CNS,> 100 µM
same,TGI,SR leukemia,22.2 µM
same,TGI,SW-620 colon,> 100 µM
same,TGI,T-47D breast,> 100000 nM
same,TGI,TK-10 renal,> 100 µM
same,TGI,U251 CNS,> 100 µM
same,TGI,UACC-257 melanoma,> 100 µM
same,TGI,UACC-62 melanoma,> 100 µM
same,TGI,UO-31 renal,> 100 µM
CC(=O)[CH-]C(=O)c1ccccc1.CC(=O)[CH-]C(=O)c1ccccc1.CC1(C)OCC(C2OC3OC(C)(C)OC3C2[O-])O1.CC1(C)OCC(C2OC3OC(C)(C)OC3C2[O-])O1.[Ti+4] (stereo not given),GI50,786-0 renal,11.8 µM
same,TGI,786-0 renal,27.3 µM
same,GI50,A498 renal,15.7 µM
same,TGI,A498 renal,30.2 µM
same,GI50,A549 NSCLC,15.3 µM
same,TGI,A549 NSCLC,38 µM
same,GI50,ACHN renal,16.4 µM
same,TGI,ACHN renal,38.1 µM
same,GI50,CAKI-1 renal,29.9 µM
same,TGI,CAKI-1 renal,79.7 µM
same,GI50,CCRF-CEM leukemia,3.49 µM
same,TGI,CCRF-CEM leukemia,39.8 µM
same,GI50,DLD-1 colon,18.5 µM
same,TGI,DLD-1 colon,52.5 µM
same,GI50,EKVX NSCLC,14.1 µM
same,TGI,EKVX NSCLC,30.1 µM
same,GI50,HCT-116 colon,14.4 µM
same,TGI,HCT-116 colon,32.1 µM
same,GI50,HCT-15 colon,15.4 µM
same,TGI,HCT-15 colon,46.5 µM
same,GI50,HOP-62 NSCLC,17.9 µM
same,TGI,HOP-62 NSCLC,36.2 µM
same,GI50,HOP-92 NSCLC,6.84 µM
same,TGI,HOP-92 NSCLC,22.8 µM
same,GI50,HT29 colon,16.3 µM
same,TGI,HT29 colon,40.6 µM
same,GI50,IGROV1 ovarian,21.6 µM
same,TGI,IGROV1 ovarian,48.8 µM
same,GI50,K-562 leukemia,14.2 µM
same,TGI,K-562 leukemia,71.4 µM
same,GI50,KM12 colon,13.2 µM
same,TGI,KM12 colon,42.8 µM
same,GI50,KM20L2 colon,29.6 µM
same,TGI,KM20L2 colon,> 100 µM
same,GI50,LOX IMVI melanoma,13.7 µM
same,TGI,LOX IMVI melanoma,34.2 µM
same,GI50,LXFL 529 NSCLC,11.5 µM
same,TGI,LXFL 529 NSCLC,24 µM
same,GI50,M14 melanoma,16.1 µM
same,TGI,M14 melanoma,37.6 µM
same,GI50,M19-MEL melanoma,4.91 µM
same,TGI,M19-MEL melanoma,> 100 µM
same,GI50,MALME-3M melanoma,10.5 µM
same,TGI,MALME-3M melanoma,28.5 µM
same,GI50,MOLT-4 leukemia,7.39 µM
same,TGI,MOLT-4 leukemia,> 100 µM
same,GI50,NCI-H23 lung,18.2 µM
same,TGI,NCI-H23 lung,38.3 µM
same,GI50,NCI-H460 lung,11.3 µM
same,TGI,NCI-H460 lung,28.4 µM
same,GI50,OVCAR-4 ovarian,20.4 µM
same,TGI,OVCAR-4 ovarian,68.4 µM
same,GI50,OVCAR-5 ovarian,12.3 µM
same,TGI,OVCAR-5 ovarian,29 µM
same,GI50,OVCAR-8 ovarian,13.9 µM
same,TGI,OVCAR-8 ovarian,34.3 µM
same,GI50,RXF 393 renal,12.5 µM
same,TGI,RXF 393 renal,25.3 µM
same,GI50,SF-268 CNS,11.6 µM
same,TGI,SF-268 CNS,30 µM
same,GI50,SF-295 CNS,13.8 µM
same,TGI,SF-295 CNS,30.8 µM
same,GI50,SF-539 CNS,13.6 µM
same,TGI,SF-539 CNS,28 µM
same,GI50,SK-MEL-2 melanoma,7.49 µM
same,TGI,SK-MEL-2 melanoma,25.5 µM
same,GI50,SK-MEL-28 melanoma,14 µM
same,TGI,SK-MEL-28 melanoma,29.9 µM
same,GI50,SK-OV-3 ovarian,14.9 µM
same,TGI,SK-OV-3 ovarian,50.3 µM
same,GI50,SN12C renal,17.7 µM
same,TGI,SN12C renal,43.4 µM
same,GI50,SNB-75 CNS,11 µM
same,TGI,SNB-75 CNS,28.5 µM
same,GI50,SW-620 colon,10.7 µM
same,TGI,SW-620 colon,29.7 µM
same,GI50,TK-10 renal,34.1 µM
same,TGI,TK-10 renal,> 100 µM
same,GI50,UACC-62 melanoma,16.9 µM
same,TGI,UACC-62 melanoma,39.6 µM
CN(C)CC1CCC/C(=C\c2ccc(OC(=O)/C=C/c3ccccc3)cc2)C1=O (stereo not given),TGI,786-0 renal,2.06 µM
same,TGI,A498 renal,23.2 µM
same,TGI,A549 NSCLC,8.4 µM
same,TGI,ACHN renal,6.62 µM
same,TGI,BT-549 breast,4.47 µM
same,TGI,CAKI-1 renal,3.38 µM
same,TGI,CCRF-CEM leukemia,0.808 µM
same,TGI,COLO 205 colon,3.95 µM
same,TGI,DU-145 prostate,7.11 µM
same,TGI,EKVX NSCLC,4.89 µM
same,TGI,HCC-2998 colon,> 28.1 µM
same,TGI,HCT-116 colon,2.8 µM
same,TGI,HCT-15 colon,3.14 µM
same,TGI,HL-60(TB) leukemia,> 100 µM
same,TGI,HOP-62 NSCLC,10.6 µM
same,TGI,HOP-92 NSCLC,4.65 µM
same,TGI,HS 578T breast,13.1 µM
same,TGI,HT29 colon,3.75 µM
same,TGI,IGROV1 ovarian,14 µM
same,TGI,K-562 leukemia,> 42.6 µM
same,TGI,KM12 colon,3.44 µM
same,TGI,LOX IMVI melanoma,1.7 µM
same,TGI,M14 melanoma,5.35 µM
same,TGI,MALME-3M melanoma,5.02 µM
same,TGI,MCF7 breast,1930 nM
same,TGI,MDA-MB-231 breast,8.2 µM
same,TGI,MDA-MB-435,7.37 µM
same,TGI,MDA-N,6.28 µM
same,TGI,MOLT-4 leukemia,> 37.1 µM
same,TGI,NCI-H226 lung,9.54 µM
same,TGI,NCI-H23 lung,4.04 µM
same,TGI,NCI-H460 lung,21.9 µM
same,TGI,NCI/ADR-RES ovarian,5.12 µM
same,TGI,OVCAR-3 ovarian,3.63 µM
same,TGI,OVCAR-4 ovarian,9.44 µM
same,TGI,OVCAR-5 ovarian,7.24 µM
same,TGI,OVCAR-8 ovarian,3.9 µM
same,TGI,PC-3 prostate,19.5 µM
same,TGI,RPMI-8226 leukemia,6.88 µM
same,TGI,RXF 393 renal,3.71 µM
same,TGI,SF-268 CNS,8.67 µM
same,TGI,SF-295 CNS,13.7 µM
same,TGI,SF-539 CNS,3.76 µM
same,TGI,SK-MEL-2 melanoma,7.79 µM
same,TGI,SK-MEL-28 melanoma,7.49 µM
same,TGI,SK-MEL-5 melanoma,12.9 µM
same,TGI,SK-OV-3 ovarian,> 50.9 µM
same,TGI,SN12C renal,4.43 µM
same,TGI,SNB-19 CNS,20.7 µM
same,TGI,SNB-75 CNS,17 µM
same,TGI,SR leukemia,> 100 µM
same,TGI,SW-620 colon,4.94 µM
same,TGI,T-47D breast,2580 nM
same,TGI,TK-10 renal,3.76 µM
same,TGI,U251 CNS,3.84 µM
same,TGI,UACC-257 melanoma,21.2 µM
same,TGI,UACC-62 melanoma,15.8 µM
same,TGI,UO-31 renal,3.66 µM
